The text below walks through data of US11291671B2, “Solid drug implants for intracochlear delivery of therapeutics for the treatment of Otic disorders” (O-Ray Pharma, Inc., priority 2012, dated 2022).

The subject of data set [1] is patients. As to conditions: cited from earlier work.
Data set [2] relates to guinea pig cochleae. Kind of data set: Intracochlear fluticasone proprionate for otoprotection of cisplatin dependent hearing loss, click ABR threshold. Type of data set: in vivo. The note with it: control ear (no implant), day 28, after cisplatin; baseline day 14 23.9±2.3 dB; P≤0.0001. The text has this: Surgery: Albino guinea pigs were used for the single dose intracochlear implantation experiment. The guinea pigs received a single implant in one of their ears, and the other ear was used as internal control. Under general anesthesia, a postauricular incision was made over the bulla in the experimental ear. A small hole was drilled through the bulla using a posterior approach. The ear was positioned with the round window facing horizontally and superiorly. A 32-gauge needle was used to puncture the round window and the particle was put in contact with the perilymph in the scala tympani. A blood drop was placed over the round window injection site to avoid leakage of perilymphatic fluids and a suture was used to close the wound. Auditory Measurements; see FIGS. 5A and 5B: Animals were anesthetized for auditory testing. […] Lower ABR LS Means reading indicates better hearing. Error bars indicate Standard Error. Study Design: Particles were created and implanted into guinea pig cochleae as described in Examples 1-2. The study design is as follows: • Each animal: one ear implanted with extended release fluticasone particle (“implant ear”), other ear served as internal control (“control ear”). • Hearing was assessed via click (broad frequency) ABRs and DPOAE

The test system of data set [3] is guinea pig cochleae. The data set is described as follows: Intracochlear fluticasone proprionate for otoprotection of cisplatin dependent hearing loss, DPOAE. The note with it: 14 days after cisplatin application, no implant. Type of data set: in vivo. An excerpt: Surgery: Albino guinea pigs were used for the single dose intracochlear implantation experiment. The guinea pigs received a single implant in one of their ears, and the other ear was used as internal control. Under general anesthesia, a postauricular incision was made over the bulla in the experimental ear. A small hole was drilled through the bulla using a posterior approach. The ear was positioned with the round window facing horizontally and superiorly. A 32-gauge needle was used to puncture the round window and the particle was put in contact with the perilymph in the scala tympani. A blood drop was placed over the round window injection site to avoid leakage of perilymphatic fluids and a suture was used to close the wound. DPOAE (2f1-f2) Input/output functions were recorded. Response amplitude was recorded as a function of L2 (L1-L2=10 dB); primaries incremented together in 5 dB steps (from 20 to 80 dB SPL) spanning the frequency range f2=5.6-45.2 kHz (f2/f1=1.2). […] Higher DPOAE reading indicates better hearing. Error bars indicate Standard Error. […] The study design is as follows: • Each animal: one ear implanted with extended release fluticasone particle (“implant ear”), other ear served as internal control (“control ear”). • Hearing was assessed via click (broad frequency) ABRs and DPOAE

For the molecule `[H]/N=C(/N)N[C@H]1[C@H](O)[C@@H](O)[C@H](O[C@@H]2O[C@@H](C)[C@](O)(C=O)[C@H]2O[C@@H]2O[C@@H](CO)[C@H](O)[C@@H](O)[C@@H]2NC)[C@@H](N/C(N)=N\[H])[C@@H]1O` [streptomycin], in data set [1] (one gram daily for 60 to 120 days), the “Patients displaying some vestibular impairment” value is on record as 25%. Also, the “Incidence of vestibular impairment” value in data set [1] (two grams per day) is 75%.
In the case of `N.N.[Cl][Pt][Cl]` [cisplatin, cis-diammine-dichloroplatinum(II)], the “ABR threshold, control ears following cisplatin treatment at day 28” value in data set [2] was 40.7±2.5 dB. The “DPOAE responses, control ears” value in data set [3] was “absent”.
